Experimental data taken from patent publication US20090203663A1, “CHEMICAL COMPOUNDS” (AstraZeneca AB, priority 2006, published 2009).

Columns and labels:
[1] = target: T1, human α5β1 (Homo sapiens, UniProt P05556+P08648); experiment: In vitro binding assay: inhibition of α5β1 integrin binding to human fibronectin fragment Fn9-10 (Origen electrochemiluminescence); conditions: α5β1 integrin binding to biotinylated Fn9-10; IC50 data; unit inferred
T1 construct: human α5β1 purified from placenta; purchased Chemicon CC1055-K; host or cells: human placenta (tissue-purified)
Text: The assay determined the ability of compounds to inhibit binding of α5β1 integrin to a cognate ligand, a fragment of human fibronectin. The assay used Origen technology (IGEN International) to measure the compound activity. Briefly, α5β1 integrin was coated onto epoxy-paramagnetic beads (Dynal Biotech UK, Bromborough, Wirral, CH62 3QL, UK, Catalogue No 143.02) and biotinylated-fibronectin ligand was coupled to strepatividin labelled BV-Tag-NHS-Ester (BioVeris Corporation, Witney, Oxfordshire, OX28 4GE, UK, Catalogue No JSF396). The ruthenium-labelled BV-Tag emits a electrochemiluminescence signal upon stimulation which is detected by the Origen reader. Thus, interaction of integrin and ligand causes association of bead and tag, and the resulting electrochemiluminescence signal reflects the level of integrin interaction with fibronectin.
Coated beads were then washed into Assay Buffer (25 mM Hepes, 150 mM NaCl, 1 mM MgCl, 1 mM MnCl, 0.1% Tween, pH7.4) to give a final concentration of 20 µg of α5β1/ml. Immediately prior to the assay, the beads were further diluted ×40 fold in Assay Buffer to give a concentration of 0.5 μg α5β1/ml.
A DNA fragment encoding the domains 9-10 (amino-acids 1325-1509) of human fibronectin (Swiss-Prot Acession No. P02751) was isolated from cDNA libraries using standard molecular biology and PCR cloning techniques. The cDNA fragment was sub-cloned into a pT73.3 expression vector containing a GST-epitope tag (developed at AstraZeneca; Bagnall et al., Protein Expression and Purification, 2003, 27: 1-11). Following expression in E. coli, the expressed protein, termed Fn9-10, was purified using the GST-tag using standard purification techniques. The recombinant Fn9-10 was subsequently biotinylated using a EZ-link Sulfo-NHS-LC-Biotinylation kit (Perbio Science UK Ltd., Cramlington, Northumberland, NE23 1WA, UK, Catalogue No. 21335) and made to give a final concentration of approximately 1 mg/ml. BV-Tag-NHS-Ester was is labelled with streptavidin by incubation at room temperature following manufacturers instructions and buffer-exchanged into PBS to give a concentration of 0.5 mg/ml. Immediately prior to the assay, biotinylated-Fn9-10 and Streptavidin-labelled BV-Tag were diluted in Assay Buffer to give a final concentrations of 0.6 ug/ml and 1.5 ug/ml respectively. The Fn9-10 and BV-Tag solutions were then mixed together in equal volumes and incubated on ice for at least 30 minutes prior to the assay.
Test compounds were prepared as 10 mM stock solutions in DMSO (Sigma-Aldrich Company Ltd, Gillingham, Dorset SP8 4XT Catalogue No. 154938) and serially diluted with 4% DMSO to give a range of test concentrations at ×4 required final concentration. Aliquots (20 μl) of each compound dilution were placed into each well of a 384-well round bottomed polypropylene plate (Matrix Technologies, Wilmslow, Cheshire, SK9 3LP, Catalogue No. 4340 384). Each plate also contained control wells: maximum signal was created using wells containing 20 μl of 4% DMSO, and minimum signal corresponding to no binding was created using wells containing 20 μl of 80 mM EDTA (Sigma Catalogue No. E7889).
For the assay, 20 μl of a5b1-bead suspension and 40 μl of the Fn9-10/BV-Tag preincubated solution were added to each well containing 20 μl of compound or control solution. Assay plates were then incubated at room temperature for a minimum of 6 hours before being analysed on the Origen plate reader. […]

[2] = target: T2, a5β1 integrin mediated adhesion of K562 cells (Homo sapiens, UniProt P05556+P08648); experiment: In vitro cell adhesion assay: adhesion of K562 cells to fibronectin fragment Fn9-10 (crystal violet); type: cell-based; conditions: K562 cells on Fn9-10 coated plates, 0.2 mM MnCl, 45 minutes; IC50 data; unit inferred
T2 construct: a5β1 integrin mediated adhesion of K562 cells; host or cells: K562 human erythroleukaemia cells
Text: The assay determined the ability of compounds to inhibit the a5β1 integrin mediated adhesion of K562 cells to the ligand, a fragment of human fibronectin. The human K562 erythroleukaemia cell line (LGC Promochem, Teddington, Middlesex, UK, Catalogue No. CCL-243) was routinely maintained in RPMI 1640 medium (Sigma-Aldrich Company Ltd, Gillingham, Dorset SP8 4XT, Catalogue No. R0883) containing 10% heat-inactivated foetal calf serum (PAA lab GmbH, Pasching, Austria Catalogue No. PAA-A15-043) and 1% glutamax-1 (Invitrogen Ltd. Paisley, UK Catalogue No. 35050-038) at 37° C. with 5% CO2 at densities between 1×10^5 and 1×10^6 cells/ml.
A DNA fragment encoding the domains 9-10 (amino-acids 1325-1509) of human fibronectin (Swiss-Prot Acession No. P02751) was isolated from cDNA libraries using standard molecular biology and PCR cloning techniques. The cDNA fragment was sub-cloned into a pT7#3.3 expression vector containing a GST-epitope tag (developed at AstraZeneca; Bagnall et al., Protein Expression and Purification, 2003, 27: 1-11), and the fragment termed Fn9-10. Following expression in E. coli, the expressed protein was purified using the GST-tag using standard purification techniques.
For adhesion assay, a 96-well flat bottomed plate (Greiner Bio one ltd., Gloucester GL10 3SX Catalogue No. 655101) was coated overnight at 4° C. with 100 μl of 20 μg/ml Fn9-10 ligand in Dulbecco's PBS (Gibco#14190-94). The plate was then washed twice with 200 μl of PBS and blocked with 100 μl of 3% BSA (SigmaA7888) in PBS for 1 hour at 37° C. The plates were then washed again 3 times with 200 μl of PBS and left empty.
Test compounds were prepared as 10 mM stock solutions in DMSO (Sigma-Aldrich Company Ltd, Gillingham, Dorset SP8 4XT Catalogue No. 154938) and serially diluted with HBSS (Hanks Buffered Salt solution (Gibco Catalogue No. 14170-088)/2% DMSO to give a range of test concentrations at twice required final concentration. Aliquots (50 μl) of each compound dilution were placed into each well of the Fn9-10 coated plates. Each plate also contained control wells: maximum adhesion signal was created using wells containing 50 μl HBSS/2% DMSO, and minimum signal corresponding to no adhesion was created using wells containing 50 μl HBSS/2% DMSO/20 mM EDTA (Sigma Catalogue No. E7889).
The K562 cells were cultured to ˜1×10^6 cells/ml, and each culture suspension pooled. Cells were centrifuged at 1200 rpm for 2 mins, and the pellets washed with HBSS followed by HBSS/50 mM HEPES (Sigma Catalogue No. H0887). Cell pellets were pooled and resuspended in HBSS/0.4 mM manganese chloride/50 mM HEPES (MnCl; Sigma Catalogue No. M1787) to give a final concentration of 4×10^6 cells/ml.
The assay was initiated by the addition of 50 μl of cell suspension into each coated well (200,000 cells/well), thus resulting in final desired compound concentration and a final MnCl concentration of 0.2 mM. The plates were incubated for 45 minutes at 37° C. 5% CO2. […]
After fixation, the ethanol was flicked off to waste and 100 μl of 0.1% Crystal violet stain was added to each well, and incubated at ambient temperature for 15 minutes. […] Finally, 100 μl of deionised water was added to each well and the absorbance was determined at 590 nm on a spectrophotometer. The minimum value was subtracted from all values, and the absorbance signal was plotted against compound concentration to generate IC50 data.

T2 sequence (P08648 42-894 limits assumed): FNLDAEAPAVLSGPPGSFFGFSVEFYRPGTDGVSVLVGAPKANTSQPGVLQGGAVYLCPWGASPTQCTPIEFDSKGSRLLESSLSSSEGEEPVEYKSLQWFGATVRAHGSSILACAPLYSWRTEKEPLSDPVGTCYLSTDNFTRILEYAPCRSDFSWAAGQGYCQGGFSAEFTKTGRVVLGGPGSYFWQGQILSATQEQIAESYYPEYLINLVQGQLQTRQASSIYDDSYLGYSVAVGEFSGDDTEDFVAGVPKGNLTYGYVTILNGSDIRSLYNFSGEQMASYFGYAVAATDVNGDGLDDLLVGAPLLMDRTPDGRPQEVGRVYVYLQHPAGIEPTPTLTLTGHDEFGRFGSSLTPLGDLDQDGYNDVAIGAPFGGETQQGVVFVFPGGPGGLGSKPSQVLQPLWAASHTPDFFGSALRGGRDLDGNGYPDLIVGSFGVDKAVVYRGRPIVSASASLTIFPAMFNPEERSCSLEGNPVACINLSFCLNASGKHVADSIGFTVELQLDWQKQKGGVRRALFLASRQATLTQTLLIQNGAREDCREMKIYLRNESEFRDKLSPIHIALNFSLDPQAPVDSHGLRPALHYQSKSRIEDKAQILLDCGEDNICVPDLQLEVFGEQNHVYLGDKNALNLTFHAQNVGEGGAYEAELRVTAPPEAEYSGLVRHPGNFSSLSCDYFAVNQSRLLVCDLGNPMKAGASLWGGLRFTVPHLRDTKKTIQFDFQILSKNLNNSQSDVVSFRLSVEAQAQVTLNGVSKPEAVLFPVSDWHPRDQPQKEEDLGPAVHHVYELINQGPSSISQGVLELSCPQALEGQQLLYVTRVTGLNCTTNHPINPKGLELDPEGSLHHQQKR
T2 sequence (P08648 895-1049 partner limits assumed): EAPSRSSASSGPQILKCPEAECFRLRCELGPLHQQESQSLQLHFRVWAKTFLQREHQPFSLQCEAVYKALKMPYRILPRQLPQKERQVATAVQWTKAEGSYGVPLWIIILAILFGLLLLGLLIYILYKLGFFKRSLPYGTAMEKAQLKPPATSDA
T2 sequence (P05556 21-798): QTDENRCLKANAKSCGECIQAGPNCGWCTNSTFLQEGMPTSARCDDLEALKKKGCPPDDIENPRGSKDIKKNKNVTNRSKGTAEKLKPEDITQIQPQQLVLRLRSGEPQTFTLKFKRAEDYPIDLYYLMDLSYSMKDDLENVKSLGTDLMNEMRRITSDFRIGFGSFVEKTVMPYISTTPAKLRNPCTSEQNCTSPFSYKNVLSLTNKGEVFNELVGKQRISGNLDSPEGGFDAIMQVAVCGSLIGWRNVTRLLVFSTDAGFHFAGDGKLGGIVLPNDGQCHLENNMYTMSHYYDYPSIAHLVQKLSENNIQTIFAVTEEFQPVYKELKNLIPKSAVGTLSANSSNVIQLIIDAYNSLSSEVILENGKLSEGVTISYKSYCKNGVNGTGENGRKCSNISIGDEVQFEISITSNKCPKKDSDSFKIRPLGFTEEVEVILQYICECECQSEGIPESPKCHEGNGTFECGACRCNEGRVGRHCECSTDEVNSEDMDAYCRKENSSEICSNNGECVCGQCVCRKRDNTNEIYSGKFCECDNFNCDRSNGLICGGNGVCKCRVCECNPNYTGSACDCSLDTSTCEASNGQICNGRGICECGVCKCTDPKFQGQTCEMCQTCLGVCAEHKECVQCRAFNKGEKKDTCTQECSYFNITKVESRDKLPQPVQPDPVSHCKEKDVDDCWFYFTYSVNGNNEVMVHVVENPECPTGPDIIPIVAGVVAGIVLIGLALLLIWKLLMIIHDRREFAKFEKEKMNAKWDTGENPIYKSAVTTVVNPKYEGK
T1 sequence (P08648 42-894 limits assumed): as the sequence (P08648 42-894 limits assumed) above
T1 sequence (P08648 895-1049 partner limits assumed): as the sequence (P08648 895-1049 partner limits assumed) above
T1 sequence (P05556 21-798): as the sequence (P05556 21-798) above

Row | Compound | IC50 [1] [µM] | IC50 [2] [µM]
1 | CN1CCC(Oc2ccc(C[C@H](NC(=O)c3c(Cl)cccc3Cl)C(=O)O)cc2)CC1 [Example 20, N-(2,6-Dichlorobenzoyl)-O-(1-methylpiperidin-4-yl)-L-tyrosine] | 0.185 | 2.4
2 | Cc1cc(C(=O)N2CC(Oc3ccc(C[C@H](NC(=O)c4c(Cl)cccc4Cl)C(=O)O)cc3)C2)ccc1F [Example 48, N-(2,6-dichlorobenzoyl)-O-[1-(4-fluoro-3-methylbenzoyl)azetidin-3-yl]-L-tyrosine] | 0.466 | 4
3 | O=C(N[C@@H](Cc1ccc(O[C@H]2CCCN(Cc3cc(F)ccc3F)C2)cc1)C(=O)O)c1c(Cl)cccc1Cl [Example 76, N-(2,6-dichlorobenzoyl)-O-[(3S)-1-(2,5-difluorobenzyl)piperidin-3-yl]-L-tyrosine] | 4.1 | 11.4
4 | N#Cc1cccc(CN2CCC(Oc3ccc(C[C@H](NC(=O)c4c(Cl)cccc4Cl)C(=O)O)cc3)CC2)c1 [Example 83, O-[1-(3-cyanobenzyl)piperidin-4-yl]-N-(2,6-dichlorobenzoyl)-L-tyrosine] | 1.7 | 6.6
5 | N-(2,6-Dichlorobenzoyl)-O-[(3R)-pyrrolidin-3-yl]-L-tyrosine [Example 17] | 1.2 | 9.3
